Reference: patent publication US4167570A, “2-Methyl-6-alkyl-11-aminoalkyl-6,11-dihydro-5H-pyrido(2,3-B)(1,5)benzodia zepin-5-ones and salts thereof” (Boehringer Ingelheim GmbH, priority 1976, dated 1979)
Where a name gives a salt, the structure may show the parent alone.

Tests used:
[1] = system: bronchial secretion in guinea pigs; test: expectorant (bronchosecretolytic) activity, increase in bronchial secretion in anesthetized guinea pigs, peroral administration (Perry & Boyd, modified by Engelhorn & Puschmann); type: in vivo; conditions: two-hour period, vs untreated controls, male guinea pigs
Method: (§1) The bronchosecretolytic activity and the intravenous acute toxicity of the compounds of this invention and of certain related 2-unsubstituted analogs disclosed in German Offenlegungsschrift No. 2,424,811 were ascertained by the standard test methods described below.
The tests for expectorant activity were carried out according to the method of PERRY, W. and BOYD, E.M.; J. Pharmacol. exp. Therap. 73, 65 (1941), as modified by ENGELHORN, R. and PUSCHMANN, S.; Arzneimittel Forsch. 21, 1045 (1971), on male guinea pigs with a body weight of 450 to 550 gm, which were anesthetized by i.p.-administration of a * 25% urethane solution (1,0 g/kg). The substances were administered perorally at the indicated dosages levels, each in 2 ml of distilled water, by means of an esophageal tube. 5 tests were carried out per dosage. The increase in bronchial secretion was calculated from the amount secreted within a two-hour period after administration of the test compound in comparison with the values obtained from untreated control animals, also within a two-hour period.

[2] = acute toxicity, LD50 in the mouse after intravenous administration; conditions: in vivo, i.v., NMRI-mice both sexes, deaths within 14 days, Litchfield and Wilcoxon
Method: as §1
The acute toxicity was tested in NMRI-mice of both sexes having a body weight of 20 gm after intravenous administration. 0.1 ml of an aqueous 0.9% sodium chloride solution/10 gm of animal was used as a vehicle. The LD50 was calculated according to LITCHFIELD and WILCOXON from the percentage of the animals which died within 14 days after administration of various dosages.

Compound: CCN(CC)CCCN1c2ccccc2N(C)C(=O)c2ccc(C)nc21.Cl [A, 11-(3-Diethylamino-propyl)-6,11-dihydro-2,6-dimethyl-5H-pyrido[2,3-b][1,5]benzodiazepin-5-one hydrochloride]
- Average percentage change in amount of bronchial secretion in guinea pigs ([1]; 0.005 μg/kg per os): +44%
- Average percentage change in amount of bronchial secretion in guinea pigs ([1]; 0.05 μg/kg per os): +100%
- LD50 at 336 h [2]: 15.4 mg/kg

Compound: CCN(CC)CCCN1c2cc(C)c(C)cc2N(C)C(=O)c2ccc(C)nc21.O=C(O)/C=C/C(=O)O [B, 11-(3-Diethylamino-propyl)-6,11-dihydro-2,6,8,9-tetramethyl-5H-pyrido[2,3-b][1,5]benzodiazepin-5-one hydrogen fumarate]
- Average percentage change in amount of bronchial secretion in guinea pigs ([1]; 0.005 μg/kg per os): +44%
- Average percentage change in amount of bronchial secretion in guinea pigs ([1]; 0.05 μg/kg per os): +83%
- LD50 at 336 h [2]: 9.9 mg/kg

Compound: CCN(CC)CCCN1c2ccccc2N(C)C(=O)c2cccnc21.Cl [X, 11-(3-Diethylamino-propyl)-6,11-dihydro-6-methyl-5H-pyrido[2,3-b][1,5]benzodiazepin-5-one hydrochloride]
- Average percentage change in amount of bronchial secretion in guinea pigs ([1]; 0.005 μg/kg per os): +0%
- Average percentage change in amount of bronchial secretion in guinea pigs ([1]; 0.05 μg/kg per os): +13%
- Average percentage change in amount of bronchial secretion in guinea pigs ([1]; 0.5 μg/kg per os): +80%

Compound: CCN(CCCN1c2ccccc2N(C)C(=O)c2cccnc21)C(C)C [Y, 11-[3-N-ethyl-N-isopropyl-amino)-propyl]-6,11-dihydro-6-methyl-5H-pyrido[2,3-b][1,5]benzodiazepin-5-one hydrochloride]
- Average percentage change in amount of bronchial secretion in guinea pigs ([1]; 0.05 μg/kg per os): +10%
- LD50 at 336 h [2]: 30 mg/kg

Compound: CC(C)N(CCCN1c2ccccc2N(C)C(=O)c2cccnc21)C(C)C.Cl [Z, 6,11-Dihydro-11-(3-diisopropylamino-propyl)-6-methyl-5H-pyrido[2,3-b][1,5]benzodiazepin-5-one hydrochloride]
- Average percentage change in amount of bronchial secretion in guinea pigs ([1]; 0.05 μg/kg per os): +27%
